Results reported in ChEMBL document CHEMBL3046248, “Synthesis and Fungicidal Activities of 2-Alkoxyiminoacetamides with a 4, 5-Dihydroisoxazole Ring” (1998).

Test system: Pseudoperonospora cubensis
Experiment: Fungicidal activity against Pseudoperonospora cubensis in cucumber plant assessed as cucumber downy mildew disease control at 7.8 ppm at 22 +/- 2 degC, 98% RH measured after 10 days
Type: functional

Question: Which Activity does the source give for `CO/N=C(\C#N)C(=O)NC1=NOC(C)(C)C1` here?
Answer: Its Activity is 70%.

Question: Which Activity does the source give for `CO/N=C(\C#N)C(=O)NCC1=NOC(C)C1` (stereo not given) here?
Answer: The Activity was 70%.

Question: Which Activity does the source give for `CO/N=C(\C#N)C(=O)NCC1=NOC(C)(C)C1` here?
Answer: Its Activity is 70%.

Test system: Pseudoperonospora cubensis
Experiment: Fungicidal activity against Pseudoperonospora cubensis in cucumber plant assessed as cucumber downy mildew disease control at 31.3 ppm at 22 +/- 2 degC, 98% RH measured after 10 days
Type: functional

Question: `CC(C)O/N=C(\C#N)C(=O)NC1=NOC(C)C1` (stereo not given) was tested. Which Activity did it give?
Answer: Its Activity is 70%.

Question: For `CO/N=C(\C#N)C(=O)NCc1cc(C)on1`, which Activity is on record?
Answer: Its Activity is 70%.

Question: `CO/N=C(\C#N)C(=O)NCC#N` was tested. Which Activity did it give?
Answer: Its Activity is 70%.

Question: For `CO/N=C(C(=O)NC1=NOC(C)(C)C1)\C(N)=N\O`, which Activity is on record?
Answer: The Activity was 70%.

Question: `CO/N=C(C(=O)NC1=NOC(C)C1)\C(N)=N\O` (stereo not given) was tested. Which Activity did it give?
Answer: The Activity was 70%.

Question: With `CCC1(C)CC(NC(=O)C(=N/OC)/C(N)=N/O)=NO1` (stereo not given) as the molecule, how does the Activity read?
Answer: Its Activity is 70%.

Question: For `CCO/N=C(C(=O)NC1=NOC(C)(C)C1)\C(N)=N\O`, which Activity is on record?
Answer: The Activity was 70%.

Question: For `CO/N=C(\C#N)C(=O)NC1=NOC(C)C1` (stereo not given), which Activity is on record?
Answer: The Activity was 70%.

Question: For `CCO/N=C(\C#N)C(=O)NCC1=NOC(C)C1` (stereo not given), which Activity is on record?
Answer: Its Activity is 70%.

Question: `CC1CC(CNC(=O)/C(C#N)=N/OCc2ccccc2)=NO1` (stereo not given) was tested. Which Activity did it give?
Answer: Its Activity is 70%.

Question: Which Activity does the source give for `CCO/N=C(\C#N)C(=O)NC1=NOC(C)C1` (stereo not given) here?
Answer: Its Activity is 70%.

Question: With `CO/N=C(\C#N)C(=O)NCC1=NOC(C(C)(C)C)C1` (stereo not given) as the molecule, how does the Activity read?
Answer: The Activity was 70%.

Question: With `CO/N=C(\C#N)C(=O)NCc1cccnc1` as the molecule, how does the Activity read?
Answer: The Activity was 70%.

Test system: Pseudoperonospora cubensis
Experiment: Fungicidal activity against Pseudoperonospora cubensis in cucumber plant assessed as cucumber downy mildew disease control at 500 ppm at 22 +/- 2 degC, 98% RH measured after 10 days
Type: functional

Question: Which Activity does the source give for `CC1CC(NC(=O)/C(C#N)=N/OCc2ccccc2)=NO1` (stereo not given) here?
Answer: The Activity was <70%.

Question: For `CO/N=C(\C#N)C(=O)NCc1ccsc1`, which Activity is on record?
Answer: The Activity was <70%.

Question: Which Activity does the source give for `C#CCNC(=O)/C(C#N)=N/OC` here?
Answer: The Activity was <70%.

Question: How did the Activity turn out when `C=CCNC(=O)/C(C#N)=N/OC` was run?
Answer: Its Activity is <70%.

Question: With `N#C/C(=N\OCc1ccccc1)C(=O)NCCCl` as the molecule, how does the Activity read?
Answer: Its Activity is <70%.

Question: How did the Activity turn out when `CNC(=O)/C(=N\OC)C(=O)NC1=NOC(C)(C)C1` was run?
Answer: Its Activity is <70%.

Question: For `CO/N=C(/C(=O)NC1=NOC(C)(C)C1)C(=O)N(C)C`, which Activity is on record?
Answer: Its Activity is <70%.

Question: How did the Activity turn out when `CO/N=C(\C(=N)OC)C(=O)NC1=NOC(C)(C)C1` was run?
Answer: The Activity was <70%.

Question: Which Activity does the source give for `CC1(C)CC(NC(=O)C(=N/OCc2ccccc2)/C(N)=N/O)=NO1` here?
Answer: Its Activity is <70%.

Question: For `CO/N=C(\C#N)C(=O)NC1=NOC(c2ccccc2)C1` (stereo not given), which Activity is on record?
Answer: The Activity was <70%.

Question: Which Activity does the source give for `CO/N=C(/C(=O)NC1=NOC(C)(C)C1)C(=O)OC` here?
Answer: The Activity was <70%.

Question: How did the Activity turn out when `CO/N=C(\C(N)=O)C(=O)NC1=NOC(C)(C)C1` was run?
Answer: The Activity was <70%.

Test system: Pseudoperonospora cubensis
Experiment: Fungicidal activity against Pseudoperonospora cubensis in cucumber plant assessed as cucumber downy mildew disease control at 125 ppm at 22 +/- 2 degC, 98% RH measured after 10 days
Type: functional

Question: With `CC(C)O/N=C(\C#N)C(=O)NC1=NOC(C)C1` (stereo not given) as the molecule, how does the Activity read?
Answer: Its Activity is 70%.

Question: `CO/N=C(\C#N)C(=O)NCC#N` was tested. Which Activity did it give?
Answer: The Activity was 70%.

Question: With `CO/N=C(\C(=N)SC)C(=O)NC1=NOC(C)(C)C1` as the molecule, how does the Activity read?
Answer: Its Activity is 70%.

Question: For `CO/N=C(\C#N)C(=O)NCC1=NOC(c2ccccc2)C1` (stereo not given), which Activity is on record?
Answer: Its Activity is 70%.

Question: For `CC(C)O/N=C(\C#N)C(=O)NCC1=NOC(C)C1` (stereo not given), which Activity is on record?
Answer: The Activity was 70%.

Question: How did the Activity turn out when `CCO/N=C(\C#N)C(=O)NC1=NOC(C)C1` (stereo not given) was run?
Answer: Its Activity is 70%.

Question: `CO/N=C(\C#N)C(=O)NC1=NOC(C(C)(C)C)C1` (stereo not given) was tested. Which Activity did it give?
Answer: Its Activity is 70%.
